Assay results from patent publication US20230330093A1, “APPLICATION OF NITROGEN-CONTAINING SATURATED HETEROCYCLIC COMPOUND” (SHANGHAI PHARMACEUTICALS HOLDING CO., LTD., priority 2020, published 2023).
Where two headings read alike, the source gives them in different places.

Assay: Plasma pharmacokinetics and bioavailability after intravenous and oral administration
Type: in vivo, cynomolgus monkeys
Details: for Vd/F: read-out: Vss/F
Description: Cynomolgus monkeys (3/sex/group: weight 3-5 kg, age 5-6 years old) were obtained from SuZhou XiShan ZhongKe Laboratory Animals (Shanghai, China). Animals were housed for a 7-day acclimation period before study. The monkeys were individually caged in a controlled temperature (18-26° C.) and humidity (50±20%) animal room with an air flow of 10 plus air changes per hour with fresh air. The lighting cycle was 12 h on and 12 h off, and the monkeys were fed once a day in the morning. All animal experiments were performed in accordance with the Animal Care and Use Guidelines set by the AMMS Animal Care and Use Committee.
The compound of Formula I was intravenously or orally administered to cynomolgus monkeys fasted overnight. The doses were 1 mg/kg (intravenous), 1 mg/kg, 3 mg/kg, and 9 mg/kg (oral). Blood samples were collected from a limb vein at 0, 5, and 15 min and at […], 0.5, 1, 2, 3, 4, 6, 8, 12, and 24 h (0.2 mL for each time point) after administration. All blood samples were centrifuged immediately after collection at 10,000×g for 5 min and the plasmas were stored at −75±10° C. until analysis. Plasma samples were prepared by protein precipitation. The concentrations of the compound of Formula I in plasma were determined by the validated liquid chromatography-tandem mass spectrometry method.
The pharmacokinetic parameters such as the area under the plasma concentration-time curve (AUC), maximum plasma concentration (Cmax), time to reach Cmax (Tmax), half-life (T1/2), total body plasma clearance (CL), mean residence time (MRT) and volume of distribution at steady state (Vss) were calculated by non-compartmental analysis with WinNonlin v1.3 (Pharsight, Mountain View, CA, USA). For allometric scaling, animal pharmacokinetic data were simulated by a two-compartment model with the Kinetica 5.1 software package (v.3.0; InnaPhase, Philadelphia, PA, USA).

[1] = both sexes, cynomolgus monkey, plasma, Monkey, 1 mg/kg iv
[2] = both sexes, cynomolgus monkey, plasma, Monkey, 1 mg/kg po
[3] = both sexes, cynomolgus monkey, plasma, Monkey, 3 mg/kg po
[4] = both sexes, cynomolgus monkey, plasma, Monkey, 9 mg/kg po
[5] = both sexes, cynomolgus, cynomolgus monkey, plasma, Monkey, 3 mg/kg po
[6] = both sexes, cynomolgus, cynomolgus monkey, plasma, Monkey, 9 mg/kg po

COC(=O)NCCCn1nc([C@@H](C)N(C(=O)[C@H]2CNCCO2)C2CC2)c2ccc(C)nc21 [compound of Formula I]
F (Monkey, 1 mg/kg po): 3.3% | F (Monkey, 3 mg/kg po): 8.0% | F (Monkey, 9 mg/kg po): 11.3% | half-life (both sexes, cynomolgus monkey, plasma, iv, 1 mg/kg, Monkey, 1 mg/kg iv): 2.73 h | half-life (both sexes, cynomolgus monkey, plasma, po, 1 mg/kg, Monkey, 1 mg/kg po): 2.9 h | half-life (both sexes, cynomolgus monkey, plasma, po, 9 mg/kg, Monkey, 9 mg/kg po): 5.99 h | half-life (both sexes, cynomolgus monkey, plasma, po, 9 mg/kg, oral 1, 3, 9 mg/kg, monkey plasma): 2.73 to 5.99 h | AUC [1]: 421 ng·h/mL | Cmax [1]: 466 ng/mL | MRT [1]: 0.97 h | Vd (both sexes, cynomolgus monkey, plasma, Monkey, 1 mg/kg iv, read-out: Vss): 1.86 L/kg | AUC [2]: 11.8 ng·h/mL | CL/F [2]: 1410 mL/min/kg | Cmax [2]: 3.99 ng/mL | MRT [2]: 4.32 h | Tmax [2]: 1 h | Vd/F [2]: 366 L/kg | CL/F [3]: 503 mL/min/kg | Vd/F [3]: 104 L/kg | AUC [4]: 426 ng·h/mL | Cmax [4]: 263 ng/mL | MRT [4]: 2.62 h | Tmax [4]: 1 h | clearance (both sexes, cynomolgus monkey, plasma, intravenous 1 mg/kg, monkeys): 32.7 mL/min/kg | bioavailability (both sexes, cynomolgus monkey, plasma, monkeys, calculated from AUC0-24h after iv and po administration): 3.3 to 11.3% | half-life (both sexes, cynomolgus, cynomolgus monkey, plasma, po, 3 mg/kg, Monkey, 3 mg/kg po): 3.68 h | AUC [5]: 99.4 ng·h/mL | Cmax [5]: 42.2 ng/mL | MRT [5]: 3.46 h | Tmax [5]: 1.3 h | CL/F [6]: 353 mL/min/kg | Vd/F [6]: 55.5 L/kg | distribution volume (intravenous 1 mg/kg, monkeys): 1.86 L/kg
